Tests used:
Assay in all cases: OD600 after 10 h growth (baseline-subtracted); higher = more bacterial growth (less inhibition)
[1] = tested on: Escherichia coli CFT073 (UPEC)
Procedure: (§1)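 Broth microdilution growth assay in Mueller Hinton broth, 100 µL in 96-well plates, inoculated 1:200 from OD600 0.1 overnight cultures by pinning, 37 °C with shaking at 800 rpm, 1:2 serial dilutions from 128 µg/mL (64 µg/mL for Ebastine). The read-out is OD600 after 10 h; curves were baseline-corrected by subtracting the minimum of the 2nd-4th measurements. Three biological replicates, with water and DMSO no-compound controls.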

[2] = tested on: Klebsiella pneumoniae MKP103
Procedure: as §1

[3] = tested on: Staphylococcus aureus Newman
Procedure: as §1

[4] = tested on: Pseudomonas aeruginosa PA14
Procedure: as §1

Escherichia coli IAI1 = tested on: Escherichia coli IAI1
Procedure: as §1

COc1cc2c(cc1Cc1cccc(Cl)c1F)c(=O)c(C(=O)O)cn2[C@H](CO)C(C)C [Elvitegravir]
OD600 after 10 h growth
Conditions | Escherichia coli IAI1 | [1] | [2] | [3] | [4]
0.1 µg/mL | 0.803 | 0.782 | 0.671 | 1.07 | 0.752
0.2 µg/mL | 0.846 | 0.768 | 0.666 | 1.07 | 0.747
0.5 µg/mL | 0.816 | 0.793 | 0.672 | 1.08 | 0.751
1 µg/mL | 0.808 | 0.81 | 0.664 | 1.08 | 0.748
2 µg/mL | 0.82 | 0.812 | 0.671 | 1.08 | 0.761
4 µg/mL | 0.818 | 0.804 | 0.675 | 0.309 | 0.756
8 µg/mL | 0.834 | 0.793 | 0.681 | 0.0327 | 0.758
16 µg/mL | 0.836 | 0.807 | 0.675 | 0.0197 | 0.743
32 µg/mL | 0.812 | 0.806 | 0.651 | 0.00533 | 0.689
64 µg/mL | 0.784 | 0.766 | 0.625 | 0 | 0.661
128 µg/mL | 0.771 | 0.733 | 0.596 | 0.013 | 0.588

Cc1c(Cl)c(C)[n+]([O-])c(Cl)c1-c1noc(-c2cc(O)c(O)c([N+](=O)[O-])c2)n1 [Opicapone]
OD600 after 10 h growth
Conditions | Escherichia coli IAI1 | [1] | [2] | [3] | [4]
0.1 µg/mL | 0.811 | 0.786 | 0.664 | 1.07 | 0.743
0.2 µg/mL | 0.855 | 0.788 | 0.668 | 1.07 | 0.743
0.5 µg/mL | 0.822 | 0.94 | 0.669 | 1.07 | 0.764
1 µg/mL | 0.815 | 0.787 | 0.681 | 1.07 | 0.829
2 µg/mL | 0.818 | 0.786 | 0.744 | 1.09 | 0.747
4 µg/mL | 0.802 | 0.872 | 0.791 | 1.18 | 0.81
8 µg/mL | 0.797 | 1.02 | 0.839 | 1.07 | 0.709
16 µg/mL | 0.798 | 0.787 | 0.781 | 0.413 | 0.677
32 µg/mL | 0.801 | 0.775 | 0.682 | 0.371 | 0.678
64 µg/mL | 0.792 | 0.796 | 0.669 | 0.466 | 0.658
128 µg/mL | 0.767 | 0.758 | 0.632 | 0.356 | 0.603

CC1=C(C)C(=O)C(CCCCCCCCCC[P+](c2ccccc2)(c2ccccc2)c2ccccc2)=CC1=O [Visomitin]
OD600 after 10 h growth
Conditions | Escherichia coli IAI1 | [1] | [2] | [3] | [4]
0.1 µg/mL | 0.805 | 0.786 | 0.672 | 1.08 | 0.762
0.2 µg/mL | 0.808 | 0.787 | 0.672 | 1.08 | 0.757
0.5 µg/mL | 0.8 | 0.785 | 0.676 | 1.09 | 0.757
1 µg/mL | 0.848 | 0.785 | 0.674 | 1.08 | 0.754
2 µg/mL | 0.815 | 0.818 | 0.679 | 0.0277 | 0.856
4 µg/mL | 0.795 | 0.809 | 0.686 | 0.0387 | 0.821
8 µg/mL | 0.769 | 0.777 | 0.697 | 0.0433 | 0.733
16 µg/mL | 0.045 | 0.0113 | 0.7 | 0.0257 | 0.717
32 µg/mL | 0.0307 | 0.007 | 0.196 | 0.0217 | 0.681
64 µg/mL | 0.032 | 0.0133 | 0.00967 | 0.0133 | 0.0773
128 µg/mL | 0.0327 | 0.024 | 0.0183 | 0.025 | 0.0423
